Experimental data as given in US5276054A, “Substituted hexahydrobenzopyran derivatives as angiotensin II antagonists” (Merck & Co., Inc., priority 1992, dated 1994).
pIC50: −log10 of the molar value. Values joined by “and” are separate entries in the source; they are usually repeats but may differ in a detail not shown here. Equal entries are not always repeated.

Legend:
[1] = target: T1, angiotensin II receptor, site 1 (Oryctolagus cuniculus, UniProt P34976); test: Receptor binding assay using rabbit aortae membrane preparation (125I-Sar1 Ile8-angiotensin II), site 1; settings: rabbit aortae membranes, 37° C., 90 minutes
T1 construct: tissue Pel-Freeze Biologicals; host or cells: rabbit aorta, membranes
T1 sequence (P34976 1-359): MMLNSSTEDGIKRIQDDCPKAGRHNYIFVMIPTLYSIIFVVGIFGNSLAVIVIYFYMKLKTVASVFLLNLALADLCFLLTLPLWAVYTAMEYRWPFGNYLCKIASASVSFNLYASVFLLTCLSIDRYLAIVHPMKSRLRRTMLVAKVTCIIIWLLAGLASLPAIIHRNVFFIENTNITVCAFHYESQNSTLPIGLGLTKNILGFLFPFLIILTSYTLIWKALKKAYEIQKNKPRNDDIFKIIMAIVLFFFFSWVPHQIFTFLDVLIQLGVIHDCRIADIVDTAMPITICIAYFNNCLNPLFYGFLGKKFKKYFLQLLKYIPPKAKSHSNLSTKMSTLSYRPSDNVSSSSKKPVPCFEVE
Protocol: On positive results with rat adrenal gland assay, assays using rabbit aorta may be employed.
Receptor binding assay using rabbit aortae membrane preparation
Three frozen rabbit aortae (obtained from Pel-Freeze Biologicals) were suspended in 5 mM Tris-0.25M Sucrose, pH 7.4 buffer (50 mL) homogenized, and then centifuged. The mixture was filtered through a cheesecloth and the supernatant was centrifuged for 30 minutes at 20,000 rpm at 4° C. The pellet thus obtained was resuspended in 30 mL of 50 mM Tris-5 mM MgCl2 buffer containing 0.2% Bovine Serum Albumin and 0.2 mg/mL Bacitracin and the suspension was used for 100 assay tubes. Samples tested for screening were done in duplicate. To the membrane preparation (0.25 mL) there was added ^125 I-Sar^1 Ile^8 -angiotensin II [obtained from New England Nuclear] ([…]; 20,000 cpm) with or without the test sample and the mixture was incubated at 37° C. for 90 minutes. The mixture was then diluted with ice-cold 50 mM Tris-0.9% NaCl, pH 7.4 (4 mL) and filtered through a glass fiber filter (GF/B Whatman 2.4" diameter). The filter was soaked in scintillation cocktail (10 mL) and counted for radioactivity using Packard 2660 Tricarb liquid scintillation counter. […]

[2] = target: T2, angiotensin II receptor, site 2 (AT-2 receptor) (Rattus norvegicus, UniProt P35351); test: Receptor assay using rat adrenal gland preparation (125I-Angiotensin II binding), site 2
T2 construct: Adrenal membranes for the receptor assay were readied first by placing cleaned, whole adrenal glands in microcentrifuge tubes; from tissue; host or cells: rat adrenal glands (whole), membranes
T2 sequence (P35351 1-363): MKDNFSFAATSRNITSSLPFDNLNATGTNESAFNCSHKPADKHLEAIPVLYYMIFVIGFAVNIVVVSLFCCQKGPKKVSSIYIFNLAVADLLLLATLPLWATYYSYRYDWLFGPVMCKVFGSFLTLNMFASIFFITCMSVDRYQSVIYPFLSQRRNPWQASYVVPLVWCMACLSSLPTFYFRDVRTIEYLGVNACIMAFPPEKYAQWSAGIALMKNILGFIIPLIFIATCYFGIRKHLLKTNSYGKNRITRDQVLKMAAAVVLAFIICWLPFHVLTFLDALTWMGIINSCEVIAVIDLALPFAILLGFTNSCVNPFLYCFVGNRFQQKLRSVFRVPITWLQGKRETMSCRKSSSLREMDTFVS
Description: Angiotensin II (AII) is a powerful arterial vasoconstrictor, and it exerts its action by interacting with specific receptors present on cell membranes. The compounds of the present invention are competitive antagonists of AII at receptor sites. The usefulness of compounds as AII antagonists may be determined from the results of certain receptor binding assays. The initial assay is that using rat adrenal glands and the results of this assay are described herein.
Receptor assay using rat adrenal gland preparation
Adrenal membranes for the receptor assay were readied first by placing cleaned, whole adrenal glands in microcentrifuge tubes (20 glands per tube), and freezing and storing under liquid nitrogen. As needed, a microcentrifuge tube of adrenal glands was homogenized in 20 ml 50 mM Tris-HCl pH 7.7 and centrifuged at 20,000 rpm for 15 minutes at 4° C. […]
For the assay, the adrenal membrane preparation in one vial was resuspended in 30 ml of 100 mM Tris-HCl pH 7.4 with 5 mM MgCl2, 0.2% bovine serum albumin and 0.2 mg/ml bacitracin. […] The vials are counted with a gamma counter for one minute and percent inhibition determined from counts/min (CPM) as follows: [formula] The IC50 is determined by plotting percent inhibition v. concentration of compound tested.

pIC50 [1]: 4.59
pIC50 ([2]; rat adrenal membranes, 37° C., 90 minutes, site 2): 5.49 to 5.79 and 5.70 to 6.00
Structure (SMILES): CCCCCC1=C(C=O)C2OC(C)(C)C(O)CC23OC3C1=O (stereo not drawn) [Compound A]
antagonist activity at AT-2 receptor sites ([2]; statement in words): antagonist activity at AT-2 receptor sites
